How the values were obtained:
Format in all cases: in vivo
Echinochloa crus-galli [1] = assay: Pre-emergence herbicidal action; conditions: 1280 g/ha, scored visually after about 3 weeks vs untreated controls
Outline: (§1)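 Application rate corresponded to 1280 g/ha, sprayed pre-emergence onto covering soil as wettable-powder suspension or emulsion concentrate with 0.5% additive. Effects were rated visually as percent versus untreated plants after roughly 3 weeks in the greenhouse.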

Amaranthus retroflexus [2] = assay: Pre-emergence herbicidal action; conditions: 1280 g/ha, scored visually after about 3 weeks vs untreated controls
Outline: as §1

Veronica persica [3] = assay: Pre-emergence herbicidal action; conditions: 1280 g/ha, scored visually after about 3 weeks vs untreated controls
Outline: as §1

Polygonum convolvulus [4] = assay: Pre-emergence herbicidal action; conditions: 1280 g/ha, scored visually after about 3 weeks vs untreated controls
Outline: as §1

Viola tricolor [5] = assay: Pre-emergence herbicidal action; conditions: 1280 g/ha, scored visually after about 3 weeks vs untreated controls
Outline: as §1

Abutilon theophrasti [6] = assay: Pre-emergence herbicidal action; conditions: 1280 g/ha, scored visually after about 3 weeks vs untreated controls
Outline: as §1

Setaria viridis [7] = assay: Pre-emergence herbicidal action; conditions: 1280 g/ha, scored visually after about 3 weeks vs untreated controls
Outline: as §1

Matricaria inodora [8] = assay: Post-emergence herbicidal action; conditions: 1280 g/ha, rated visually after about 3 weeks vs untreated controls
Outline: (§2)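 Greenhouse weeds in sandy loam sprayed at one-leaf stage (2-3 weeks after sowing) with WP or EC formulations plus 0.5% additive, 600 l/ha water, 1280 g/ha. Activity scored visually about 3 weeks later versus untreated controls (100% = dead, 0% = like control).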

Echinochloa crus-galli [9] = assay: Post-emergence herbicidal action; conditions: 1280 g/ha, rated visually after about 3 weeks vs untreated controls
Outline: as §2

Amaranthus retroflexus [10] = assay: Post-emergence herbicidal action; conditions: 1280 g/ha, rated visually after about 3 weeks vs untreated controls
Outline: as §2

Veronica persica [11] = assay: Post-emergence herbicidal action; conditions: 1280 g/ha, rated visually after about 3 weeks vs untreated controls
Outline: as §2

Polygonum convolvulus [12] = assay: Post-emergence herbicidal action; conditions: 1280 g/ha, rated visually after about 3 weeks vs untreated controls
Outline: as §2

Viola tricolor [13] = assay: Post-emergence herbicidal action; conditions: 1280 g/ha, rated visually after about 3 weeks vs untreated controls
Outline: as §2

Abutilon theophrasti [14] = assay: Post-emergence herbicidal action; conditions: 1280 g/ha, rated visually after about 3 weeks vs untreated controls
Outline: as §2

Setaria viridis [15] = assay: Post-emergence herbicidal action; conditions: 1280 g/ha, rated visually after about 3 weeks vs untreated controls
Outline: as §2

Stellaria media [16] = assay: Post-emergence herbicidal action; conditions: 1280 g/ha, rated visually after about 3 weeks vs untreated controls
Outline: as §2

Alopecurus myosuroides [17] = assay: Post-emergence herbicidal action; conditions: 1280 g/ha, rated visually after about 3 weeks vs untreated controls
Outline: as §2

Matricaria inodora [18] = assay: Pre-emergence herbicidal action; conditions: 1280 g/ha, scored visually after about 3 weeks vs untreated controls
Outline: as §1

Hordeum murinum [19] = assay: Pre-emergence herbicidal action; conditions: 1280 g/ha, scored visually after about 3 weeks vs untreated controls
Outline: as §1

Lolium rigidum [20] = assay: Pre-emergence herbicidal action; conditions: 1280 g/ha, scored visually after about 3 weeks vs untreated controls
Outline: as §1

Avena fatua = assay: Pre-emergence herbicidal action; conditions: 1280 g/ha, scored visually after about 3 weeks vs untreated controls
Outline: as §1

Stellaria media [21] = assay: Pre-emergence herbicidal action; conditions: 1280 g/ha, scored visually after about 3 weeks vs untreated controls
Outline: as §1

Alopecurus myosuroides [22] = assay: Pre-emergence herbicidal action; conditions: 1280 g/ha, scored visually after about 3 weeks vs untreated controls
Outline: as §1

Hordeum murinum [23] = assay: Post-emergence herbicidal action; conditions: 1280 g/ha, rated visually after about 3 weeks vs untreated controls
Outline: as §2

Pharbitis purpurea [24] = assay: Post-emergence herbicidal action; conditions: 1280 g/ha, rated visually after about 3 weeks vs untreated controls
Outline: as §2

Lolium rigidum [25] = assay: Post-emergence herbicidal action; conditions: 1280 g/ha, rated visually after about 3 weeks vs untreated controls
Outline: as §2

Pharbitis purpurea [26] = assay: Pre-emergence herbicidal action; conditions: 1280 g/ha, scored visually after about 3 weeks vs untreated controls
Outline: as §1

## Cc1c(Sc2ccc(F)cc2)c(Oc2ncc(Cl)cn2)nn1C [Example I-060]
Echinochloa crus-galli [1]
  herbicidal activity on Echinochloa crus-galli: 80%
Amaranthus retroflexus [2]
  herbicidal activity on Amaranthus retroflexus: 100%
Veronica persica [3]
  herbicidal activity on Veronica persica: 100%
Polygonum convolvulus [4]
  herbicidal activity on Polygonum convolvulus: 100%
Viola tricolor [5]
  herbicidal activity on Viola tricolor: 100%
Abutilon theophrasti [6]
  herbicidal activity on Abutilon theophrasti: 80%
Setaria viridis [7]
  herbicidal activity on Setaria viridis: 90%
Matricaria inodora [8]
  herbicidal activity on Matricaria inodora: 80%
Echinochloa crus-galli [9]
  herbicidal activity on Echinochloa crus-galli: 90%
Amaranthus retroflexus [10]
  herbicidal activity on Amaranthus retroflexus: 100%
Veronica persica [11]
  herbicidal activity on Veronica persica: 90%
Polygonum convolvulus [12]
  herbicidal activity on Polygonum convolvulus: 80%
Viola tricolor [13]
  herbicidal activity on Viola tricolor: 100%
Abutilon theophrasti [14]
  herbicidal activity on Abutilon theophrasti: 80%
Setaria viridis [15]
  herbicidal activity on Setaria viridis: 80%
Stellaria media [16]
  herbicidal activity on Stellaria media: 100%
Alopecurus myosuroides [17]
  herbicidal activity on Alopecurus myosuroides: 90%

## COc1cnc(Oc2nn(C)c(C)c2Sc2ccccc2)nc1 [Example I-140]
Matricaria inodora [18]
  herbicidal activity on Matricaria inodora: 100%
Hordeum murinum [19]
  herbicidal activity on Hordeum murinum: 100%
Echinochloa crus-galli [1]
  herbicidal activity on Echinochloa crus-galli: 100%
Amaranthus retroflexus [2]
  herbicidal activity on Amaranthus retroflexus: 100%
Polygonum convolvulus [4]
  herbicidal activity on Polygonum convolvulus: 100%
Lolium rigidum [20]
  herbicidal activity on Lolium rigidum: 100%
Viola tricolor [5]
  herbicidal activity on Viola tricolor: 100%
Abutilon theophrasti [6]
  herbicidal activity on Abutilon theophrasti: 100%
Avena fatua
  herbicidal activity on Avena fatua: 100%
Setaria viridis [7]
  herbicidal activity on Setaria viridis: 100%
Stellaria media [21]
  herbicidal activity on Stellaria media: 100%
Alopecurus myosuroides [22]
  herbicidal activity on Alopecurus myosuroides: 100%
Matricaria inodora [8]
  herbicidal activity on Matricaria inodora: 100%
Hordeum murinum [23]
  herbicidal activity on Hordeum murinum: 80%
Echinochloa crus-galli [9]
  herbicidal activity on Echinochloa crus-galli: 100%
Amaranthus retroflexus [10]
  herbicidal activity on Amaranthus retroflexus: 100%
Pharbitis purpurea [24]
  herbicidal activity on Pharbitis purpurea: 100%
Veronica persica [11]
  herbicidal activity on Veronica persica: 100%
Polygonum convolvulus [12]
  herbicidal activity on Polygonum convolvulus: 100%
Lolium rigidum [25]
  herbicidal activity on Lolium rigidum: 80%
Viola tricolor [13]
  herbicidal activity on Viola tricolor: 100%
Abutilon theophrasti [14]
  herbicidal activity on Abutilon theophrasti: 100%
Setaria viridis [15]
  herbicidal activity on Setaria viridis: 100%
Stellaria media [16]
  herbicidal activity on Stellaria media: 90%
Alopecurus myosuroides [17]
  herbicidal activity on Alopecurus myosuroides: 100%

## Cc1c(Sc2ccccc2)c(Oc2ncccn2)nn1C [Example I-126]
Matricaria inodora [18]
  herbicidal activity on Matricaria inodora: 100%
Hordeum murinum [19]
  herbicidal activity on Hordeum murinum: 100%
Echinochloa crus-galli [1]
  herbicidal activity on Echinochloa crus-galli: 100%
Amaranthus retroflexus [2]
  herbicidal activity on Amaranthus retroflexus: 100%
Pharbitis purpurea [26]
  herbicidal activity on Pharbitis purpurea: 90%
Polygonum convolvulus [4]
  herbicidal activity on Polygonum convolvulus: 100%
Lolium rigidum [20]
  herbicidal activity on Lolium rigidum: 100%
Viola tricolor [5]
  herbicidal activity on Viola tricolor: 100%
Abutilon theophrasti [6]
  herbicidal activity on Abutilon theophrasti: 100%
Avena fatua
  herbicidal activity on Avena fatua: 100%
Setaria viridis [7]
  herbicidal activity on Setaria viridis: 100%
Stellaria media [21]
  herbicidal activity on Stellaria media: 100%
Alopecurus myosuroides [22]
  herbicidal activity on Alopecurus myosuroides: 100%
Matricaria inodora [8]
  herbicidal activity on Matricaria inodora: 80%
Hordeum murinum [23]
  herbicidal activity on Hordeum murinum: 80%
Echinochloa crus-galli [9]
  herbicidal activity on Echinochloa crus-galli: 100%
Amaranthus retroflexus [10]
  herbicidal activity on Amaranthus retroflexus: 100%
Pharbitis purpurea [24]
  herbicidal activity on Pharbitis purpurea: 100%
Polygonum convolvulus [12]
  herbicidal activity on Polygonum convolvulus: 100%
Viola tricolor [13]
  herbicidal activity on Viola tricolor: 100%
Abutilon theophrasti [14]
  herbicidal activity on Abutilon theophrasti: 100%
Setaria viridis [15]
  herbicidal activity on Setaria viridis: 100%
Stellaria media [16]
  herbicidal activity on Stellaria media: 100%
Alopecurus myosuroides [17]
  herbicidal activity on Alopecurus myosuroides: 100%

From US20200181117A1, “SUBSTITUTED 3-HETEROARYLOXY-1H-PYRAZOLES AND SALTS THEREOF AND THEIR USE AS HERBICIDAL ACTIVE SUBSTANCES” (BAYER CROPSCIENCE AKTIENGESELLSCHAFT, priority 2017, published 2020)
